Where two headings read alike, the source gives them in different places.
What was measured:
[1] = Dynamic light scattering of liposome formulations before and after SANS heating cycles; type: physicochemical; settings: for PDI, Before heating / Size (hydrodynamic), Before heating: before the SANS experiments (n = 5); for Size (hydrodynamic), Before heating: room temperature, D2O; for DLS larger population size: bimodal size distribution; for PDI, After heating / Size (hydrodynamic), After heating: after the SANS experiments (n = 3); for Size (hydrodynamic), After heating: heating to 42° C. and back, eight months after
Description: A library of artificial phospholipids was synthesised. Table 5 summarises the characterisation of the liposomal formulations concerning hydrodynamic size and polydispersity, before and after the temperature-dependent SANS measurements. The size of the DPPC and Pad-PC-Pad liposomes was (120±2) nm with a polydispersity index between 0.01 and 0.20. […] Pad-Pad-PC and Sur-PC-Sur liposomes were 400 to 1,500 nm in size with a polydispersity index of 0.57.
DLS measurements were carried out on a DelsaMax PRO (Beckman Coulter, USA) at room temperature and at a lipid concentration of 0.3 mg/mL in D2O. The data were averaged among five independent measurements before heating cycles and three measurements eight months after applying heating cycles. Data were treated with the cumulant analysis method.

[2] = Small-angle neutron scattering (SANS) of liposomes as a function of temperature; type: physicochemical
Description: In order to determine the structural parameters, including the bilayer thickness of the selected liposomal formulations, a suitable model for data fitting has to be identified. […] The structure factor was fitted using the sticky hard sphere model (Baxter et al., The Journal of Chemical Physics 1968, 49 (6), 2770-2774; Mays, Langmuir 1989, 5, 422-428). In order to adjust the form factor to the overall shape of the liposomes, an ellipsoidal shell model with a homogeneous cross-section (Guinier, Annales de Physique, 1939; pp 161-237) was applied. The elliptical shell model is defined by three orthogonal axes with lengths a=R, b=R and c=εR, along with eccentricity ε>0, (ε<1: oblate, ε=1: spherical, ε>1: prolate). The model also accounts for variations in bilayer thickness and liposome size. As the scattering data of the Pad-PC-Pad liposomes at the temperature of 35° C. could not be approximated satisfactorily by means of the ellipsoidal shell, the inventors included disks with a homogeneous cross-section—an approach motivated by the cryo-TEM results. Together with the experimental data of the Pad-PC-Pad liposomes at three selected temperatures, the obtained fits are represented in FIG. 23.
The inventors recognised that the inhomogeneity of the liposomal formulations, except for Pad-PC-Pad, concerning the shape and size of the artificial lipids in this study only allows for the reasonable fitting of the q-range, which corresponds to bilayer thickness. For this purpose, the inventors applied an extended Guinier law (Hjelm et al., The Journal of Physical Chemistry B 2000, 104 (2), 197-211; Fratzl, Journal of Statistical Physics 1994, 77 (1-2), 125-143), which yields the thickness of the bilayer. To account for possible multi-lamellarity, the inventors included a para-crystalline stacking model (Schwartz et al., Biophysical journal 1975, 15 (12), 1201-1233; FruÈhwirth et al., Journal of Applied Crystallography 2004, 37 (5), 703-710) as a structure factor.
SANS measurements were performed at the SANS-I beamline at the Swiss Spallation Neutron Source SINQ facility (Paul Scherrer Institute, Villigen, Switzerland). The samples were loaded into 2 mm-path length, boron-free quartz glass cells and mounted in a temperature-controlled holder. This system allows for controlling the temperature of the specimen with an accuracy better than 1 K. The liposomal suspensions were measured between 22 and 42° C. in 3 to 4 K steps. Subsequently, the suspensions were cooled down to room temperature (22° C.) and measured again. Three detector distances, i.e. 1.6, 6.0 and 18.0 m, were used to collect data over the range of scattering vectors 0.01 nm^−1<q<10 nm^−1 at the neutron wavelengths (A) […]. Data were collected with a two-dimensional ^3He-detector with an array of 128×128 pixels and reduced to one-dimensional I(q) scattering curves, thus radially averaging the two-dimensional images. The data were corrected for transmission, background scattering and detector efficiency according to a standard procedure using the BerSANS software package (Keiderling, Applied Physics A 2002, 74 (1), s1455-s1457; Strunz et al., Journal of Applied Crystallography 2000, 33 (3 Part 1), 829-833).
The SANS data were analysed using SASfit software (Breßler et al., Journal of Applied Crystallography 2015, 48 (5), 1587-1598) and corresponding models. A Pad-PC-Pad sample was fitted over the entire measured q-range, whereas we restricted the fit for the other samples to the q-range, which corresponds to lipid bilayer thickness. For Pad-PC-Pad, the inventors used an ellipsoidal shell model with a homogeneous cross-section (Guinier, Annales de Physique, 1939; pp 161-237) and size distributions in terms of both thickness and radius. […]

[3] = reported previously, cited from earlier work
[4] = Differential scanning calorimetry, main phase transition of vesicle membranes; type: physicochemical; settings: main phase transition temperature of liposome membrane
Description: Interdigitation of membrane leaflets also influences the membranes main-phase transition temperature. […] Also, the value for the bilayer main-phase transition temperature is 11.5 K higher than the calculated critical temperature from the monolayer experiments, where no interdigitation is possible.

[5] = Release experiments with 5(6)-carboxyfluorescein-loaded large unilamellar vesicles (LUVET100), spontaneous and vortex-triggered; type: physicochemical
Description: FIG. 8 Release experiments using 5(6)-carboxyfluorescein-loaded large unilamellar vesicles comprising 1,3-diheptadecanamidopropan-2-yl (2-(trimethylammonio) ethyl) phosphate (4) obtained via extrusion through a 100 nm track-edged filter membrane (LUVET100). Triggered release was induced by shaking the samples for a specific amount of time on a vortex-shaker.
Previously the inventors reported the 5(6)-carboxyfluorescein release from vesicles containing 1,3-palmitoylamido-1,3-deoxy-sn-glycero-2-phosphatidylcholine (2) (Holme et al., Nat. Nanotechnol. 2012, 7, 536-543). […] Increasing the Tm promises improved release properties. […] This leads to a lower leakage of the vesicles at 22° C. (room temperature) as well as 37° C. (average human body temperature) (FIG. 8). A prolongation if the acyl chain to the artificial C18 phospholipid 1,3-stearoylamido-1,3-deoxy-sn-glycero-2-phosphatidylcholine leads to an increased Tm of 52° C., but this phospholipid forms almost no liposomes anymore.
Each sample was treated with Triton X-100 to induce a full release of 5(6)-carboxy fluorescein.
Large unilamellar vesicles with a diameter of 100 nm (LUVET100) of the 1,3-diheptadecanamidopropan-2-yl (2-(trimethylammonio) ethyl) phosphate (4) were prepared following the extrusion protocol: in a 25 ml round bottom flask, 10 mg of the lipid was dissolved in CH2Cl2. After evaporation of the organic solvent, the film was further dried under high vacuum (40 mbar) overnight. Then the film was hydrated with the internal buffer for 30 min (1 ml, 50 mM 5(6)-carboxyfluorescein, 10 mM HEPES buffer (AppliChem), 10 mM NaCl dissolved in pure water, pH 7.4). Now at least 5 freeze-thaw cycles (liquid N2 to 65° C.) were carried out before the suspension was extruded 11 times using a Mini Extruder (Avanti Polar Lipids, USA) using track-edged filters with a mesh size of 100 nm (Whatman, USA). The external buffer was then exchanged on a size exclusion column (1.5×20 cm Sephadex G-50 column) in external buffer (107 mM NaCl dissolved in ultrapure water, 10 mM HEPES, pH 7.4).

[6] = 22 ° C. (after cooling down to room temperature)

Compound	DLS most probable / dominant or smaller population size [1]	PDI, Before heating [1]	DLS larger population size [1]	most probable bilayer thickness ([2]; 22 ° C.)	most probable bilayer thickness [2, 6]	most probable bilayer thickness ([2]; 25 ° C.)	most probable bilayer thickness ([2]; 28 ° C.)	most probable bilayer thickness ([2]; 32 ° C.)	most probable bilayer thickness ([2]; 35 ° C.)	most probable bilayer thickness ([2]; 39 ° C.)	most probable bilayer thickness ([2]; 42 ° C.)	Tm, main phase transition temperature [3]	PDI, After heating [1]	Size (hydrodynamic), After heating [1]	other results
CCCCCCCCCCCCCCCC(=O)NC[C@H](COP(=O)([O-])OCC[N+](C)(C)C)NC(=O)CCCCCCCCCCCCCCC [Pad-Pad-PC]	about 150 nm	0.57	~3 μm	5.57 nm	5.67 nm	5.55 nm	5.55 nm	5.52 nm	5.54 nm	5.58 nm	5.57 nm	46 °C	–	–	Size (hydrodynamic), Before heating ([1]; listed as Pad-Pad-PC (2)): 1500 ± 30 nm; PDI, Before heating ([1]; listed as Pad-Pad-PC (2)): 0.57 ± 0.01; Tm, main phase transition temperature ([3]; listed as Pad-Pad-PC (2)): 40-47 °C
CCCCCCCCCCCCCCCC(=O)OCC(COC(=O)CCCCCCCCCCCCCCC)OP(=O)([O-])OCC[N+](C)(C)C [Pes-PC-Pes]	about 100 nm	0.57 ± 0.01	~1 μm	3.9 nm	4.82 nm	4.17 nm	4.46 nm	4.42 nm	4.6 nm	4.68 nm	4.58 nm	39 °C	0.92 ± 0.08	3100 ± 200 nm	Size (hydrodynamic), Before heating ([1]; listed as Pes-PC-Pes (3)): 170 ± 20 nm; increase in bilayer thickness at phase transition ([2]; present study): 18%; increase in bilayer thickness after the heating cycle ([2]; temperature cycle to 42° C. including cooling to room temperature): 24%
CCCCCCCCCCCCCCCCCC(=O)NCC(CNC(=O)CCCCCCCCCCCCCCCCC)OP(=O)([O-])OCC[N+](C)(C)C [Sad-PC-Sad, 1,3-distearamidopropan-2-phosphocholine]	160 nm	0.23 ± 0.01	–	3.15 nm	3.01 nm	3.51 nm	3.51 nm	3.49 nm	3.46 nm	3.38 nm	3.33 nm	52 °C	0.20 ± 0.02	220 ± 10 nm	Size (hydrodynamic), Before heating ([1]; listed as Sad-PC-Sad (6)): 160 ± 3 nm; Tm [4]: 52 °C; Release at 37° C. after 2 h ([5]; 37° C., 2 h): 9.1%; Release at RT after 60 s vortex ([5]; mechanically induced release, 22° C. (RT), 60 s vortexing): 8.32%; Release 37° C. after 60 s vortex ([5]; mechanically induced release, 37° C., 60 s vortexing): 40.2%; Release at RT after 6 days ([5]; spontaneous release, RT, (6 days)): 8.4%; bilayer thickness variations ([2]; 22 to 42° C.): ≤ 10%
